# Results reported in PMC9257626 (RSC Chemical Biology, 2022).
# Structures can show the parent of a compound that is named as a salt.
# Target: GAPDH (endogenous, HeLa / Jurkat) (Homo sapiens, UniProt P04406)
# Type: biochemical
# GAPDH (endogenous, HeLa / Jurkat), sequence (P04406 2-335 limits assumed): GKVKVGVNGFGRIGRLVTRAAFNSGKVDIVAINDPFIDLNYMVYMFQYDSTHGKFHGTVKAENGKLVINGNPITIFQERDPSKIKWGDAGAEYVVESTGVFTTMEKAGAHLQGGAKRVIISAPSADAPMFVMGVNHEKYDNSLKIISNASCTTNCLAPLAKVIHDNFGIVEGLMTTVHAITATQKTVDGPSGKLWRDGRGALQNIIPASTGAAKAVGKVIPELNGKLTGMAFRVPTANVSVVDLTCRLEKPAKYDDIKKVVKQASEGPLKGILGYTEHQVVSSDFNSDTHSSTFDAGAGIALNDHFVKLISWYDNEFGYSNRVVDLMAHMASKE
smiles,measurement,value
"O=C(O)C(=O)CBr [3-BP, 3-bromopyruvate]",loss of SEC1 labeling at 5 μM,"3-BP, IA and DMF showed complete loss of SEC1 labeling even at the lower concentration"
"COC(=O)/C=C/C(=O)OC [DMF, dimethyl fumarate]",loss of SEC1 labeling at 5 μM,"3-BP, IA and DMF showed complete loss of SEC1 labeling even at the lower concentration"
